Values quoted from earlier work in PMC5328943 (International journal of pharmaceutics, 2017).
Converted amounts (≈) assume the structure as drawn.

Details: with TPGS; ref Yu et al., 1999

solubility in water: 720 µg/mL (≈ 1420 µM)
SMILES: CC(C)CN(C[C@@H](O)[C@H](Cc1ccccc1)NC(=O)O[C@H]1CCOC1)S(=O)(=O)c1ccc(N)cc1 [amprenavir]
